# Measured values as given in US20110223256A1, “Method For Stabilizing Flavonoid Aqueous Dispersion” (STOKELY-VAN CAMP, INC., priority 2010, published 2011).
# Test: Shelf life of aqueous dispersion in 20 oz beverage
# Assay type: physicochemical
# Conditions: aqueous dispersion in 20 oz beverage, 22-25° C.; stable = no settling, phase separation or precipitates
# Experimental: As set forth in the examples below, stable aqueous dispersions containing bioactive compounds were prepared by using the solubilization and stabilization process. The resulting dispersions were fine, homogeneous, and stable. There were no settling, phase separation, and precipitates on the side of the bottle (See FIG. 3 and Table 1).
row,SMILES,Shelf Life (22-25° C.)
1,"COc1ccc2oc(-c3ccc(OC)c(OC)c3)c(OC)c(=O)c2c1 [Tetramethoxyflavone, 3,6,3′,4′-Tetramethoxyflavone]",Stable after at least 3 months
2,COc1ccc([C@@H]2CC(=O)c3c(O)cc(O[C@@H]4O[C@H](CO[C@@H]5O[C@@H](C)[C@H](O)[C@@H](O)[C@H]5O)[C@@H](O)[C@H](O)[C@H]4O)cc3O2)cc1O [Hesperedin],Stable after at least 3 months
3,Oc1ccc(C=Cc2cc(O)cc(O)c2)cc1 [Resveratrol],Stable after at least 3 months
4,"C[C@@H]1CC[C@H]2[C@@H](C)C(=O)O[C@@H]3O[C@@]4(C)CC[C@@H]1[C@]32OO4 [Artemisinin, reference compound]",Stable after at least 3 months
5,COc1cc(/C=C/C(=O)CC(=O)/C=C/c2ccc(O)c(OC)c2)ccc1O [Curcumin],Stable after at least 3 months
6,"O=c1c(O)c(-c2ccc(O)c(O)c2)oc2cc(O)cc(O)c12 [Quercetin, 2-(3,4-dihydroxyphenyl)-3,5,7-trihydroxy-4H-chromen-4-one]",Stable after at least 6 months
7,O=C1C[C@@H](c2ccc(O)cc2)Oc2cc(O)cc(O)c21 [Naringenin],Stable after at least 3 months

# Same assay, conditions: depending on the dispersion stabilizer(s) used
row,SMILES,Length of time quercetin stays dispersed in a beverage
1,"O=c1c(O)c(-c2ccc(O)c(O)c2)oc2cc(O)cc(O)c12 [Quercetin, 2-(3,4-dihydroxyphenyl)-3,5,7-trihydroxy-4H-chromen-4-one]",about 12 hours to about six months or longer
